Measured values published in PubChem BioAssay AID2060603 (Molecular Pharmacology Branch, DTP, NCI, 2025).

Test system: 422866-222-R5-J1-PDC spheroid viability
Test: Anticancer human tumor 422866-222-R5-J1-PDC patient-derived pancreatic adenocarcinoma cell line growth inhibition [CLK]
Conditions: spheroids with HUVEC and MSC; for IC50: curve of first compound; for viability, T/C: stronger effect = lower value; active = viability on the fitted dose curve at most 10% of control; inactive = the rest
Summary of the method: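 Multi-cell-type spheroids combined patient-derived tumor cells with HUVEC endothelial cells and human mesenchymal stem cells. Paired agents were dosed in half-log steps down from about clinical Cmax, or from 10 microM where Cmax was unknown.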

[1] = second compound 0.0316 µM, first compound 0.0316 µM
[2] = second compound 0.0316 µM, first compound 0.1 µM
[3] = second compound 0.0316 µM, first compound 0.316 µM
[4] = second compound 0.0316 µM, first compound 1 µM
[5] = second compound 0.0316 µM, first compound 3.16 µM
[6] = second compound 0.0316 µM, first compound 10 µM
[7] = second compound 0.1 µM, first compound 0.0316 µM
[8] = second compound 0.1 µM, first compound 0.1 µM
[9] = second compound 0.1 µM, first compound 0.316 µM
[10] = second compound 0.1 µM, first compound 1 µM
[11] = second compound 0.1 µM, first compound 3.16 µM
[12] = second compound 0.1 µM, first compound 10 µM
[13] = second compound 0.316 µM, first compound 0.0316 µM
[14] = second compound 0.316 µM, first compound 0.1 µM
[15] = second compound 0.316 µM, first compound 0.316 µM
[16] = second compound 0.316 µM, first compound 1 µM
[17] = second compound 0.316 µM, first compound 3.16 µM
[18] = second compound 0.316 µM, first compound 10 µM
[19] = second compound 1 µM, first compound 0.0316 µM
[20] = second compound 1 µM, first compound 0.1 µM
[21] = second compound 1 µM, first compound 0.316 µM
[22] = second compound 1 µM, first compound 1 µM
[23] = second compound 1 µM, first compound 3.16 µM
[24] = second compound 1 µM, first compound 10 µM
[25] = second compound 3.16 µM, first compound 0.0316 µM
[26] = second compound 3.16 µM, first compound 0.1 µM
[27] = second compound 3.16 µM, first compound 0.316 µM
[28] = second compound 3.16 µM, first compound 1 µM
[29] = second compound 3.16 µM, first compound 3.16 µM
[30] = second compound 3.16 µM, first compound 10 µM
[31] = second compound 10 µM, first compound 0.0316 µM
[32] = second compound 10 µM, first compound 0.1 µM
[33] = second compound 10 µM, first compound 0.316 µM
[34] = second compound 10 µM, first compound 1 µM
[35] = second compound 10 µM, first compound 3.16 µM
[36] = second compound 10 µM, first compound 10 µM
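Also: spheroids exposed to agents for seven days before readout.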

CC(=O)O[C@H]1C(=O)[C@@]2(C)[C@H]([C@H](OC(=O)c3ccccc3)[C@]3(O)C[C@H](OC(=O)[C@H](O)[C@@H](NC(=O)c4ccccc4)c4ccccc4)C(C)=C1C3(C)C)[C@]1(OC(C)=O)CO[C@@H]1C[C@@H]2O + CN1CCN(c2cc(C(=O)Nc3cc4cc(-c5cnn(C)c5)ccc4cn3)ccn2)CC1
> 10 µM: IC50 (second compound 0.0316 µM) | IC50 (second compound 0.1 µM) | IC50 (second compound 0.316 µM)
inactive: viability, T/C [1] 72.2% | viability, T/C [2] 61.6% | viability, T/C [3] 61.4% | viability, T/C [4] 69.7% | viability, T/C [5] 78.1% | viability, T/C [6] 85.3% | viability, T/C [7] 70.5% | viability, T/C [8] 61.9% | viability, T/C [9] 73.1% | viability, T/C [10] 81.5% | viability, T/C [11] 83.8% | viability, T/C [12] 95.4% | viability, T/C [13] 68.7% | viability, T/C [14] 73% | viability, T/C [15] 72.3% | viability, T/C [16] 69.7% | viability, T/C [17] 72.7% | viability, T/C [18] 85.4% | viability, T/C [19] 21.8% | viability, T/C [20] 20.5% | viability, T/C [21] 18.8% | viability, T/C [22] 19.6% | viability, T/C [23] 18.7% | viability, T/C [24] 16.4%
< 0.0316 µM: IC50 (second compound 1 µM) | IC50 (second compound 3.16 µM) | IC50 (second compound 10 µM)
active: viability, T/C [25] 6.64% | viability, T/C [26] 7.47% | viability, T/C [27] 8.49% | viability, T/C [28] 4.12% | viability, T/C [29] 9.46% | viability, T/C [30] 8% | viability, T/C [31] 1.52% | viability, T/C [32] 1.43% | viability, T/C [33] 1.2% | viability, T/C [34] 1.05% | viability, T/C [35] 0.96% | viability, T/C [36] 1.27%

COc1ccc([C@@H](O)c2cc(-c3ncnc4cc(N5CCOCC5)ccc34)c(F)cc2Cl)nn1 + CN1CCN(c2cc(C(=O)Nc3cc4cc(-c5cnn(C)c5)ccc4cn3)ccn2)CC1
5.04 µM: IC50 (second compound 0.1 µM)
active: viability, T/C [31] 1.27% | viability, T/C [32] 1.38% | viability, T/C [33] 1.7% | viability, T/C [34] 2.13% | viability, T/C [35] 3.04% | viability, T/C [36] 2.69%
< 0.0316 µM: IC50 (second compound 1 µM) | IC50 (second compound 3.16 µM) | IC50 (second compound 10 µM)
7.11 µM: IC50 (second compound 0.316 µM)
5.48 µM: IC50 (second compound 0.0316 µM)
inactive: viability, T/C [1] 116% | viability, T/C [2] 96.8% | viability, T/C [3] 88.8% | viability, T/C [4] 77.4% | viability, T/C [5] 59% | viability, T/C [6] 39.5% | viability, T/C [7] 114% | viability, T/C [8] 98.8% | viability, T/C [9] 94.3% | viability, T/C [10] 73.6% | viability, T/C [11] 56% | viability, T/C [12] 40.4% | viability, T/C [13] 98.7% | viability, T/C [14] 87.8% | viability, T/C [15] 81.4% | viability, T/C [16] 77.7% | viability, T/C [17] 52.9% | viability, T/C [18] 48% | viability, T/C [19] 18.2% | viability, T/C [20] 18.5% | viability, T/C [21] 22.9% | viability, T/C [22] 16.7% | viability, T/C [23] 20.9% | viability, T/C [24] 19.1% | viability, T/C [25] 7.87% | viability, T/C [26] 8.87% | viability, T/C [27] 9.25% | viability, T/C [28] 8.71% | viability, T/C [29] 11.4% | viability, T/C [30] 14.6%

COc1cccc2c1C(=O)c1c(O)c3c(c(O)c1C2=O)CC(O)(C(=O)CO)CC3OC1CC(N)C(O)C(C)O1 (stereo not given) + CN1CCN(c2cc(C(=O)Nc3cc4cc(-c5cnn(C)c5)ccc4cn3)ccn2)CC1
inactive: viability, T/C [1] 73.1% | viability, T/C [2] 50.2% | viability, T/C [3] 40.9% | viability, T/C [4] 28.2% | viability, T/C [5] 31% | viability, T/C [6] 36% | viability, T/C [7] 74% | viability, T/C [8] 59.4% | viability, T/C [9] 38.5% | viability, T/C [10] 34.3% | viability, T/C [11] 39.9% | viability, T/C [12] 47.1% | viability, T/C [13] 73% | viability, T/C [14] 67.4% | viability, T/C [15] 42.1% | viability, T/C [16] 35.8% | viability, T/C [17] 30.7% | viability, T/C [18] 46.5% | viability, T/C [19] 19.8% | viability, T/C [20] 16.7% | viability, T/C [21] 15.3% | viability, T/C [22] 20.3% | viability, T/C [23] 38% | viability, T/C [24] 54.5% | viability, T/C [27] 11.9% | viability, T/C [28] 22.1% | viability, T/C [29] 33.8% | viability, T/C [30] 51%
active: viability, T/C [25] 8.41% | viability, T/C [26] 7.95% | viability, T/C [31] 1.49% | viability, T/C [32] 1.52% | viability, T/C [33] 2.85% | viability, T/C [34] 3.41% | viability, T/C [35] 10.8% | viability, T/C [36] 13.8%
< 0.0316 µM: IC50 (second compound 1 µM) | IC50 (second compound 3.16 µM) | IC50 (second compound 10 µM)
0.174 µM: IC50 (second compound 0.1 µM)
0.22 µM: IC50 (second compound 0.316 µM)
0.109 µM: IC50 (second compound 0.0316 µM)

CCCS(=O)(=O)Nc1ccc(F)c(C(=O)c2c[nH]c3ncc(-c4ccc(Cl)cc4)cc23)c1F + CNC(=O)c1ccc(Nc2nc(OC3CCCC3)c3c(-c4ccc5nc(C)oc5c4)c[nH]c3n2)c(OC)c1
inactive: viability, T/C [1] 93.6% | viability, T/C [2] 111% | viability, T/C [3] 141% | viability, T/C [4] 155% | viability, T/C [5] 190% | viability, T/C [6] 134% | viability, T/C [7] 99.8% | viability, T/C [8] 102% | viability, T/C [9] 114% | viability, T/C [10] 152% | viability, T/C [11] 224% | viability, T/C [12] 122% | viability, T/C [13] 81.5% | viability, T/C [14] 77.2% | viability, T/C [15] 79.3% | viability, T/C [16] 105% | viability, T/C [17] 101% | viability, T/C [18] 104% | viability, T/C [19] 69% | viability, T/C [20] 75.9% | viability, T/C [21] 81.1% | viability, T/C [22] 91% | viability, T/C [23] 114% | viability, T/C [24] 92.3% | viability, T/C [25] 58.4% | viability, T/C [26] 70.1% | viability, T/C [27] 67.1% | viability, T/C [28] 84.6% | viability, T/C [29] 128% | viability, T/C [30] 84% | viability, T/C [31] 57.8% | viability, T/C [32] 69.2% | viability, T/C [33] 74.8% | viability, T/C [34] 75.9% | viability, T/C [35] 117% | viability, T/C [36] 80.7%
> 10 µM: IC50 (second compound 0.0316 µM) | IC50 (second compound 0.1 µM) | IC50 (second compound 0.316 µM) | IC50 (second compound 1 µM) | IC50 (second compound 3.16 µM) | IC50 (second compound 10 µM)

COC1C=CCC(C)C(C)S(=O)(=O)NC(=O)c2ccc3c(c2)N(CC2CCC21)CC1(CCCc2cc(Cl)ccc21)CO3 (stereo not given) + CNC(=O)c1ccc(Nc2nc(OC3CCCC3)c3c(-c4ccc5nc(C)oc5c4)c[nH]c3n2)c(OC)c1
> 10 µM: IC50 (second compound 0.0316 µM) | IC50 (second compound 0.1 µM) | IC50 (second compound 0.316 µM) | IC50 (second compound 1 µM) | IC50 (second compound 3.16 µM) | IC50 (second compound 10 µM)
inactive: viability, T/C [1] 118% | viability, T/C [2] 112% | viability, T/C [3] 114% | viability, T/C [4] 96.4% | viability, T/C [5] 120% | viability, T/C [6] 84.6% | viability, T/C [7] 101% | viability, T/C [8] 92.9% | viability, T/C [9] 94.1% | viability, T/C [10] 89.2% | viability, T/C [11] 97.8% | viability, T/C [12] 79.6% | viability, T/C [13] 85.2% | viability, T/C [14] 86.5% | viability, T/C [15] 72.9% | viability, T/C [16] 82.3% | viability, T/C [17] 91.6% | viability, T/C [18] 86.6% | viability, T/C [19] 69.3% | viability, T/C [20] 68.7% | viability, T/C [21] 60% | viability, T/C [22] 63.9% | viability, T/C [23] 87% | viability, T/C [24] 82.2% | viability, T/C [25] 69.9% | viability, T/C [26] 61.5% | viability, T/C [27] 62.4% | viability, T/C [28] 57.9% | viability, T/C [29] 88% | viability, T/C [30] 82% | viability, T/C [31] 58% | viability, T/C [32] 59.5% | viability, T/C [33] 69.5% | viability, T/C [34] 72.8% | viability, T/C [35] 94.8% | viability, T/C [36] 91.5%
